The values below come from US20240360133A1, “FUSED TRICYCLIC COMPOUND, PREPARATION METHOD THEREFOR AND APPLICATION THEREOF IN MEDICINE” (Jiangsu Hengrui Pharmaceuticals Co., Ltd., priority 2020, published 2024).

As a reminder, the IC50 is the point on the concentration scale where inhibition reaches its midpoint. Read a low IC50 as inhibition by little substance.

For the assay, the target named is T1, human TLR8 (Homo sapiens, UniProt Q9NR97).
T1 construct: host or cells: HEK-Blue hTLR8 (HEK293)
T1 sequence (Q9NR97 27-1041): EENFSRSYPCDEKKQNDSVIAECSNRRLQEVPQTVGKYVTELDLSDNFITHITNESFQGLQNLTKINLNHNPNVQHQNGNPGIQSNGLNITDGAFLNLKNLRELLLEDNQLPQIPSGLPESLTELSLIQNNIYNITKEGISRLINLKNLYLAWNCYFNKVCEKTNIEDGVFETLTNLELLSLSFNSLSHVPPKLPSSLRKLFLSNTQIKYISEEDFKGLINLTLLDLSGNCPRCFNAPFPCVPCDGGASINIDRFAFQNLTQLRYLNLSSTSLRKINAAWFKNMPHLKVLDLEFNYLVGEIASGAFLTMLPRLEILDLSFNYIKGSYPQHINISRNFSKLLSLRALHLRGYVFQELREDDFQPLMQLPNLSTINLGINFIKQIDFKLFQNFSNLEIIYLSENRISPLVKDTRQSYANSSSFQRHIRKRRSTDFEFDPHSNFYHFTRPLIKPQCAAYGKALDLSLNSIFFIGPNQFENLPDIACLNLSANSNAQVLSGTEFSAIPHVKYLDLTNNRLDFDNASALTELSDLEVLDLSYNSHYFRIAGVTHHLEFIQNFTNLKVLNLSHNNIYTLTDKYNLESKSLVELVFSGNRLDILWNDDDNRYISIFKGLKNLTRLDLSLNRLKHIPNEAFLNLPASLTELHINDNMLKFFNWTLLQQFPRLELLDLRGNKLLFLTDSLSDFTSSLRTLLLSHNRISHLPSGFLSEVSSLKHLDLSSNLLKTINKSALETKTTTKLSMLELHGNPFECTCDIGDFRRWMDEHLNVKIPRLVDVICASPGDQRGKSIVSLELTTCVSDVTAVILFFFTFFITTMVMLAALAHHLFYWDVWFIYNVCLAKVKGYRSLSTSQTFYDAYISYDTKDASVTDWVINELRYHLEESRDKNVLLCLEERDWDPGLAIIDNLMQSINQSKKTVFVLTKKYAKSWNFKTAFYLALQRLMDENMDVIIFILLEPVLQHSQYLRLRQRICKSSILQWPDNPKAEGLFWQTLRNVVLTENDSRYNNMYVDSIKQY
Description: Inhibitory effect on human TLR8 pathway (HEK-Blue hTLR8 SEAP reporter). The assay is classed as cell-based. To be noted: HEK-Blue hTLR8 cells, 6 μM resiquimod, 20 h, SEAP OD620. The procedure: • 1. HEK-Blue™ hTLR8 cell (Invivogen) • 2. Resiquimod (R848, Invivogen) • 3. Alkaline phosphatase detection medium (Quanti-Blue Detection, Invivogen) • 4. Blasticidin (Invivogen) • 5. Zeocin (Invivogen) • 6. Normocin (Invivogen) • 7. DMEM/HIGH Glucose (GE Healthcare) • 8. Fetal bovine serum (FBS, Gibco) • 9. Phosphate-buffered saline (Shanghai BasalMedia Technologies Co., Ltd.) • 10. Sterile purified water (made in-house by Shanghai Hengrui) • 11. 15 mL centrifuge tube (Corning) • 12. 96-well formulating plate (Corning) • 13. 96-well flat-bottom cell culture plate (Corning) • 14. Constant-temperature cell incubator (Thermo scientific) • 15. Constant-temperature incubator (Shanghai Yiheng Scientific Instruments Co., Ltd.) • 16. PHERAstar FS microplate reader (BMG Labtech)
HEK-Blue™ hTLR8 cells were purchased from Invivogen. These cells are HEK293 cells transfected with the human Toll-like receptor 8 (TLR8) gene and the secreted alkaline phosphatase reporter gene (SEAP). The alkaline phosphatase reporter gene (SEAP) is under the regulation of the IFN—P minimal promoter comprising 5 NF-kB and AP-1 binding sites. Upon activation of TLR8 with an agonist, SEAP secretion is induced via downstream NF-kB and AP-1. After addition of an antagonist compound, the pathway described above is inhibited, and SEAP secretion is reduced. The activity of the compounds for the TLR8 pathway was evaluated by measuring OD620 through the SEAP substrate.
20 mM test compounds dissolved in 100% DMSO were serially diluted with 100% DMSO to 2000, 400, 80, 16, 3.2, 0.64, 0.128, 0.0256 μM, with blank wells containing 100% DMSO. The compounds and 100% DMSO were then 20-fold diluted in DMEM/HIGH glucose media containing 10% inactivated FBS (complete media, the same applies below). Resiquimod was diluted to 60 μM with sterile water. The 60 μM resiquimod dilution in sterile water was added to a 96-well cell culture plate at 20 μL/well. The above compounds diluted in complete media and 100% DMSO were then added at 20 μL/well to wells containing resiquimod, 20 μL of sterile water and 20 μL of 100% DMSO diluted in the complete medium were added to negative control wells.
HEK-Blue™ hTLR8 cells were cultured in a DMEM/HIGH glucose medium containing 10% inactivated FBS, 100 μg/mL Normocin, 10 μg/mL blasticidin, and 100 μg/mL Zeocin. Cells that were in a good state of growth and had grown to 70%-8% were collected. The growth medium was discarded, 5-10 mL of PBS pre-heated at 37° C. was added to wash the cells once, and 2-5 mL of pre-heated PBS was added. The cells were cultured at 37° C. for 1-2 min, dispersed by pipetting, transferred to a 15 mL centrifuge tube, and counted, and the cell density was adjusted to 4.8×10^5/mL with the complete medium. After density adjustment, 160 μL of the resulting cell suspension was added to the above 96-well cell culture plate to a final number of cells per well of 76,500/well. The final concentration of resiquimod was 6 μM, and the final concentrations of the test compounds were 10,000, 2000, 400, 80, 16, 3.2, 0.64, and 0.128 nM. The cells were cultured in a 37° C., 5% CO2 incubator for 20 h. Then 20 μL of the supernatant was added to 180 μL of the prepared alkaline phosphatase detection medium and incubated in the dark in a constant-temperature incubator at 37° C. for 120 min. The OD620 absorbance readings were taken on a microplate reader. The inhibition rate was calculated using the following formula: […]
Inhibition curves were plotted using Graphpad Prism software according to the concentrations of the compounds and the corresponding inhibition rates, and the concentrations of the compounds at which the inhibition rate reached 50%, i.e., IC50 values, were calculated and are shown in Table 2.
`Cc1cc(-c2[nH]c3cc4c(nc3c2C(C)C)CNCC4)cc(C)n1` [Example 1, 2-(2,6-Dimethylpyridin-4-yl)-3-isopropyl-5,6,7,8-tetrahydro-1H-pyrrolo[3,2-b][1,7]naphthyridine] showed a concentration for half-maximal inhibition (IC50) of 0.8 nM.
With `Cc1cc(-c2[nH]c3cc4c(nc3c2C(C)C)CN(C(C)C)CC4)cc(C)n1` [Example 2, 2-(2,6-Dimethylpyridin-4-yl)-3,6-diisopropyl-5,6,7,8-tetrahydro-1H-pyrrolo[3,2-b][1,7]naphthyridine], the half-inhibitory concentration (IC50) worked out at 30.4 nM.
`Cc1cc(-c2[nH]c3cc4c(nc3c2C(C)C)CN(CCc2ccc(N3CCNCC3)nc2)CC4)cc(C)n1` [Example 4, 2-(2,6-Dimethylpyridin-4-yl)-3-isopropyl-6-(2-(6-(piperazin-4-yl)pyridin-3-yl)ethyl)-5,6,7,8-tetrahydro-1H-pyrrolo[3,2-b][1,7]naphthyridine] gave an IC50 of 1.8 nM.
Compound `Cc1cc(-c2[nH]c3cc4c(nc3c2C(C)C)CN(Cc2ccc(N3CCNCC3)cn2)CC4)cc(C)n1` [Example 5, 2-(2,6-Dimethylpyridin-4-yl)-3-isopropyl-6-((5-(piperazin-1-yl)pyridin-2-yl)methyl)-5,6,7,8-tetrahydro-1H-pyrrolo[3,2-b][1,7]naphthyridine] gave an IC50 of 2.5 nM.
Then `Cc1cc(-c2[nH]c3cc4c(nc3c2C(C)C)CN(CC23CCC(N)(CC2)CC3)CC4)cc(C)n1` [Example 7, 4-((2-(2,6-Dimethylpyridin-4-yl)-3-isopropyl-1,5,7,8-tetrahydro-6H-pyrrolo[3,2-b][1,7]naphthyridin-6-yl)methyl)bicyclo[2.2.2]octyl-1-amine], with 2.2 nM.
The result for `Cc1cc(-c2[nH]c3cc4c(nc3c2C(C)C)CN(CC(N)=O)CC4)cc(C)n1` [Example 8, 2-(2-(2,6-Dimethylpyridin-4-yl)-3-isopropyl-1,5,7,8-tetrahydro-6H-pyrrolo[3,2-b][1,7]naphthyridin-6-yl)acetamide] reads 18.8 nM.
Regarding `Cc1c(-c2[nH]c3cc4c(nc3c2C(C)C)CNCC4)cn2ncnc2c1C` [Example 9, 2-(7,8-Dimethyl-[1,2,4]triazolo[1,5-a]pyridin-6-yl)-3-isopropyl-5,6,7,8-tetrahydro-1H-pyrrolo[3,2-b][1,7]naphthyridine], it took 0.6 nM to reach half-maximal inhibition (IC50).
In turn, `Cc1c(-c2[nH]c3cc4c(nc3c2C(C)C)CN(CC(N)=O)CC4)cn2ncnc2c1C` [Example 10, 2-(2-(7,8-Dimethyl-[1,2,4]triazolo[1,5-a]pyridin-6-yl)-3-isopropyl-1,5,7,8-tetrahydro-6H-pyrrolo[3,2-b][1,7]naphthyridin-6-yl)acetamide] returned a half-inhibitory concentration (IC50) of 8.2 nM.
